Measured values taken from PubChem BioAssay AID651977 (The Scripps Research Institute Molecular Screening Center, 2013).
The source made the active and inactive calls. The rule behind the calls is not given here.

What follows are molecules tested against Steroidogenic factor 1 (Homo sapiens) (UniProt Q13285) (assay: dose-dependent inverse agonism at SF1 – cell-based, luminescence, dose response, selectivity assay for LRH-1 inverse agonist project, late-stage follow-up (AID 651977)). Conditions: SF1 cell-based luciferase reporter.
Sequence of Steroidogenic factor 1 (Homo sapiens) (Q13285 whole entry, looked up): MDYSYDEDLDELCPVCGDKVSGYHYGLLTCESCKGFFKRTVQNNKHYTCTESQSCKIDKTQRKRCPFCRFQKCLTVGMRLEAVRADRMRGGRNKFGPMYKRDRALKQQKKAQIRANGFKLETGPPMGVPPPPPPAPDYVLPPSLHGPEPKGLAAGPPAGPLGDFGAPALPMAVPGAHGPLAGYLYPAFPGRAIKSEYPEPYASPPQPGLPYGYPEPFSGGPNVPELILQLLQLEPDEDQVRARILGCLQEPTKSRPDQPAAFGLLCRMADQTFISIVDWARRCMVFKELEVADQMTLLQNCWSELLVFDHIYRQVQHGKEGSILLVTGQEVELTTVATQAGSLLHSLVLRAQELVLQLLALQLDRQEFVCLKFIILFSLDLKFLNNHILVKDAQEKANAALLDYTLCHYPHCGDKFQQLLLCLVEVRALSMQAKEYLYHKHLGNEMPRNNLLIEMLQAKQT

Compound	IC50
CCOc1ccc(OCCN2C(=O)NC(Cc3c[nH]c4ccccc34)C2=O)cc1 (centres undefined)	inactive
O=C(NCc1ccco1)c1nn(-c2ccccc2)c(=O)c2ccccc12	> 35.9 µM (inactive)
CCc1cc(=O)oc2c(C)c(OCC(=O)NCCN3CCOCC3)ccc12	inactive
CC(=O)Nc1ccc(N=c2cc([N+](=O)[O-])cc(Cl)n2O)cc1	> 12 µM (inactive)
CC(=O)Nc1ncc(Cc2cc(Cl)ccc2Cl)s1	inactive
COc1ccc(CCNC(=O)COC(=O)Cc2ccccc2[N+](=O)[O-])cc1	> 12 µM (inactive)
COc1ccccc1Oc1nnnn1-c1ccc(C(N)=O)cc1	inactive
NC(=O)C1CCN(C(=O)COc2ccc3c4c(c(=O)oc3c2)CCCC4)CC1	> 35.9 µM (inactive)
COc1ccc(CCNC(=O)CSc2ccc(NC(C)=O)cc2)cc1OC	8.79 µM
COc1ccc(NC(=O)CSc2nc(N)c(-c3ccccc3)c(=O)[nH]2)cc1	9.92 µM
O=C(CSc1nnc(CNC(=O)c2c(F)cccc2F)o1)Nc1ccc2c(c1)OCCO2	inactive
Cc1ccc(NC(=O)COC(=O)c2cc(=O)c3ccccc3o2)c(Br)c1	> 35.9 µM (inactive)
COc1ccc(NC(=O)COC(=O)c2c(-c3ccccc3)noc2C)cc1	3.19 µM
COc1ccc(CCNC(=O)CSc2nn3c(=O)c(C)nnc3s2)cc1OC	5.7 µM
Cc1ccc(NC(=O)CSc2nc3[nH]c(=O)cc(O)c3s2)c(Br)c1	> 35.9 µM (inactive)
Cc1cc(C)c2nc(NC(=O)c3ccc([N+](=O)[O-])o3)sc2c1	> 35.9 µM (inactive)
Cc1ccc(NC(=O)COC(=O)C(NS(=O)(=O)c2ccc(Cl)cc2)C(C)O)cc1C (centres undefined)	2.28 µM
Cc1nn(CC(=O)Nc2ccc3c(c2)OCCO3)c(C)c1[N+](=O)[O-]	> 35.9 µM (inactive)
O=C(COC(=O)c1ccc(=O)n(Cc2ccccc2)n1)Nc1ccc2c(c1)OCCO2	> 35.9 µM (inactive)
Cc1ccc(-c2csc(NC(=O)c3ccc([N+](=O)[O-])o3)n2)cc1	> 35.9 µM (inactive)
COc1ccc(CCNC(=O)CSc2nc3[nH]c(=O)cc(O)c3s2)cc1	> 35.9 µM (inactive)
Cc1ccc2cccc(OCC(=O)NCCC3=CCCCC3)c2n1	2.22 µM

Compound	IC50
CCOc1ccc(NC(=O)CSc2nc3[nH]ncc3c(=O)[nH]2)cc1	> 35.9 µM (inactive)
COc1ccc(NC(=O)CSc2nnc3ccc(-c4cccnc4)nn23)cc1OC	1.59 µM
Cc1ccn2c(=O)nc(SCC(=O)Nc3ccc4c(c3)OCCO4)nc2c1	> 35.9 µM (inactive)
COc1ccc(NC(=O)CN2C(=O)NC3(CCCC3)C2=O)cc1	> 35.9 µM (inactive)
Cc1cc(OCC(=O)Nc2nccs2)c2c(C)cc(=O)oc2c1	> 35.9 µM (inactive)
CCOc1ccc(NC(=O)CSc2nnc(C(C)C)n2CC)cc1	> 35.9 µM (inactive)
CCOc1ccc(OCCC(=O)OCC(=O)Nc2ccc3c(c2)OCCO3)cc1	> 35.9 µM (inactive)
O=C(Nc1ccc(Br)cn1)c1ccc([N+](=O)[O-])o1	> 35.9 µM (inactive)
CCc1c(C)nc(SCC(=O)Nc2ccc3c(c2)OCCO3)[nH]c1=O	7.83 µM
COc1ccc(NS(=O)(=O)c2ccc(OCC(=O)N3CCN(C)CC3)cc2)cc1Cl	9.99 µM
O=C(Nc1ccc(S(=O)(=O)N2CCOCC2)cc1)c1cccc([N+](=O)[O-])c1	> 12 µM (inactive)
COc1ccc(NC(=O)COC(=O)c2cc(S(=O)(=O)N3CCCC3)ccc2O)cc1	> 35.9 µM (inactive)
Cc1cccc(NC(=O)COC(=O)CN2C(=O)c3ccccc3C2=O)c1C	> 35.9 µM (inactive)
O=C(COc1ccc2c3c(c(=O)oc2c1)CCCC3)NCc1ccccn1	> 35.9 µM (inactive)
Cc1ccc(NC(=O)CSc2sc3c(O)cc(=O)[nH]c3c2C#N)c(F)c1	> 35.9 µM (inactive)
COC(=O)c1ccc(NC(=O)CSc2nncn2-c2cccnc2)cc1	> 35.9 µM (inactive)
O=C(Nc1ccccc1)c1oc2ccccc2c1NC(=O)C1CC1	inactive
O=C1CCCN2N=C(SCC(=O)Nc3ccc(Br)cc3)SC2=N1	> 35.9 µM (inactive)
O=C(CSc1nc(=O)n2cc(Cl)ccc2n1)Nc1ccc2c(c1)OCCO2	inactive
COc1ccc(CCNC(=O)COC(=O)C23CC4CC(CC(C4)C2)C3)cc1	4.42 µM
CCCN(CC(=O)Nc1ccc(C(C)=O)cc1)CC(=O)Nc1ccccc1C	inactive
CCCc1cc(=O)oc2c(C)c(OCC(=O)NCCN3CCOCC3)ccc12	5.64 µM
